Measured values taken from patent publication US20100286181A1, “PYRROLE DERIVATIVES WITH ANTIBACTERIAL ACTIVITY” (ASTRAZENECA AB, priority 2006, published 2010).
Converted amounts (≈) assume the structure as drawn.

Legend:
[1] = molecular target: GyrB ATPase activity (E. coli GyrA, E. coli GyrB) (Escherichia coli, UniProt P0AES6); assay: GyrB ATPase inhibition activity assay (ammonium molybdate/malachite green phosphate detection); format: biochemical; details: figure quoted may be an average of two or more results
Method in brief: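 E. coli GyrA/GyrB (2.5 nM each) with 5 μg/ml sheared DNA and 250 μM ATP in 50 mM HEPES pH 7.5, 5.5 mM MgCl2, 75 mM ammonium acetate. Released phosphate detected with ammonium molybdate/malachite green reagent. IC50 may be an average of two or more results.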

Streptococcus pneumoniae = assay: Bacterial susceptibility testing in liquid media (MIC), Streptococcus pneumoniae; format: cell-based; details: against Streptococcus pneumoniae; lowest concentration reducing growth by 80% or more, 37° C., 24 hrs
From the text: (§1) Compounds may be tested for antimicrobial activity by susceptibility testing in liquid media. Compounds may be dissolved in dimethylsulfoxide and tested in 10 doubling dilutions in the susceptibility assays. The organisms used in the assay may be grown overnight on suitable agar media and then suspended in a liquid medium appropriate for the growth of the organism. The can be was a 0.5 McFarland and a further 1 in 10 dilution can be made into the same liquid medium to prepare the final organism suspension in 100 pt. Plates can be incubated under appropriate conditions at 37° C. for 24 hrs prior to reading. The Minimum Inhibitory Concentration (MIC) may be determined as the lowest drug concentration able to reduce growth by 80% or more.

HIN446 = assay: Bacterial susceptibility testing in liquid media (MIC), HIN446; format: cell-based; details: strain HIN446
From the text: as §1

MCA445 = assay: Bacterial susceptibility testing in liquid media (MIC), MCA445; format: cell-based; details: strain MCA445
From the text: as §1

SPN548 = assay: Bacterial susceptibility testing in liquid media (MIC), SPN548; format: cell-based; details: strain SPN548
From the text: as §1

SAU516 = assay: Bacterial susceptibility testing in liquid media (MIC), SAU516; format: cell-based; details: strain SAU516
From the text: as §1

EFM073 = assay: Bacterial susceptibility testing in liquid media (MIC), EFM073; format: cell-based; details: strain EFM073
From the text: as §1

With `COC(=O)c1cnc(N2CCC(NC(=O)c3[nH]c(C)c(Cl)c3Cl)C3(C2)OCCO3)s1` (centres unmarked) [Example 1, Methyl 2-(10-{[(3,4-dichloro-5-methyl-1H-pyrrol-2-yl)carbonyl]amino}-1,4-dioxa-7-azaspiro[4.5]dec-7-yl)-1,3-thiazole-5-carboxylate] the IC50 [1] was 463 nM and the MIC (Streptococcus pneumoniae) was 1 µg/mL (≈ 2.1 µM).

With `Cc1[nH]c(C(=O)NC2CCN(c3ncc(C(=O)O)s3)CC23OCCCO3)c(Cl)c1Cl` (centres unmarked) [Example 16, 2-(11-{[(3,4-Dichloro-5-methyl-1H-pyrrol-2-yl)carbonyl]amino}-1,5-dioxa-8-azaspiro[5.5]undec-8-yl)-1,3-thiazole-5-carboxylic acid] the IC50 [1] was less than 9.77 nM, the MIC HIN446 (HIN446) was 1 µg/mL (≈ 2.1 µM) and the MIC MCA445 (MCA445) was 0.13 µg/mL (≈ 0.273 µM). For the same compound, the MIC SPN548 (SPN548) was less than 0.063 µg/mL, the MIC SAU516 (SAU516) was 2 µg/mL (≈ 4.21 µM) and the MIC EFM073 (EFM073) was 1 µg/mL (≈ 2.1 µM).

`CNC(=O)c1nc(N2CCC(NC(=O)c3[nH]c(C)c(Cl)c3Cl)C3(C2)OCCCO3)sc1C(=O)O` (centres unmarked) [Example 18, 2-(11-{[(3,4-Dichloro-5-methyl-1H-pyrrol-2-yl)carbonyl]amino}-1,5-dioxa-8-azaspiro[5.5]undec-8-yl)-4-[(methylamino)carbonyl]-1,3-thiazole-5-carboxylic acid] showed an IC50 [1] of less than 9.77 nM, an MIC HIN446 (HIN446) of 0.5 µg/mL (≈ 0.939 µM) and an MIC MCA445 (MCA445) of less than 0.063 µg/mL. For the same compound, the MIC SPN548 (SPN548) was less than 0.063 µg/mL, the MIC SAU516 (SAU516) was 0.25 µg/mL (≈ 0.47 µM) and the MIC EFM073 (EFM073) was 0.25 µg/mL (≈ 0.47 µM).

`COC1(OC)CN(c2ncc(C(=O)O)s2)CCC1NC(=O)c1[nH]c(C)c(Cl)c1Cl` (centres unmarked) [Example 20, 2-(4-{[(3,4-Dichloro-5-methyl-1H-pyrrol-2-yl)carbonyl]amino}-3,3-dimethoxypiperidin-1-yl)-1,3-thiazole-5-carboxylic acid] gave an IC50 [1] of less than 67.1 nM, an MIC HIN446 (HIN446) of 1 µg/mL (≈ 2.16 µM) and an MIC MCA445 (MCA445) of 0.5 µg/mL (≈ 1.08 µM). The MIC SPN548 (SPN548) was 0.13 µg/mL (≈ 0.281 µM), the MIC SAU516 (SAU516) was 2 µg/mL (≈ 4.32 µM) and the MIC EFM073 (EFM073) was 2 µg/mL (≈ 4.32 µM).
